Test results published in patent US8361998B2, “Compounds and their use as IKACh blockers” (AstraZeneca AB, priority 2010, dated 2013).
Counter-ions that a name gives are not always drawn. Like-named read-outs stand apart in the source and are kept apart here.

Molecular target: T1, human cardiac ion channel proteins hKir3.1/Kir3.4 (Homo sapiens, UniProt P48544+P48549)
T1 construct: expressed in transfected cells
T1 sequence (P48549 1-501): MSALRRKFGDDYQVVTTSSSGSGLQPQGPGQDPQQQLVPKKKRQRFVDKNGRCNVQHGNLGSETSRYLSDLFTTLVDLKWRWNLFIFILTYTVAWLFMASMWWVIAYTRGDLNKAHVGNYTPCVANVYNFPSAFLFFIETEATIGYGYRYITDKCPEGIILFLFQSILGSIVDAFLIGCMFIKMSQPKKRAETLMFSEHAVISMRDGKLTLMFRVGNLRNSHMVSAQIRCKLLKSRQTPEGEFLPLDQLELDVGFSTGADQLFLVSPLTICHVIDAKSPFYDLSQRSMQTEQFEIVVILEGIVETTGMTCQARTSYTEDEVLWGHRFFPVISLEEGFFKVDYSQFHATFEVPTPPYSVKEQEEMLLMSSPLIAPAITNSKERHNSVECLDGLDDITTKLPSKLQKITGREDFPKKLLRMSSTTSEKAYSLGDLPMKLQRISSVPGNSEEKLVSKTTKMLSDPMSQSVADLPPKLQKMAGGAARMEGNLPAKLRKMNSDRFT
T1 sequence (P48544 1-419): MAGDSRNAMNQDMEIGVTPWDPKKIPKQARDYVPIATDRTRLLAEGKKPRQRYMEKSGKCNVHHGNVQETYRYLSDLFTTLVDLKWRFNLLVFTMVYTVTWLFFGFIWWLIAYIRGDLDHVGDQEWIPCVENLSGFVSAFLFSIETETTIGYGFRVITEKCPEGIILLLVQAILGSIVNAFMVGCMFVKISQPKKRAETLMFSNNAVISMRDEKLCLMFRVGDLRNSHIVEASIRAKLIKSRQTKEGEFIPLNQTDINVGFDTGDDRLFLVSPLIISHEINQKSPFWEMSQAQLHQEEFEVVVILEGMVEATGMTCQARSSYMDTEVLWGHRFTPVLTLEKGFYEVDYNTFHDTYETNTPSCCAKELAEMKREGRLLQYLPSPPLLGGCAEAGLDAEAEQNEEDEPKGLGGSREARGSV
Assay: Atomic Absorption Screening (AAS) Rb efflux assay of hKir3.1/Kir3.4 block, carbachol/high K+ stimulated, 10-pt or 7-pt CR
Format: cell-based
Settings: AAS Rb efflux, CHO-K1 cells expressing hKir3.1/Kir3.4
Summary of the method: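 Mean IC50s derive from >4 replicates over 0.003–67 μmol/L (10-point) or >3 replicates over 0.037–27 μmol/L (7-point), both threefold steps. Rb-loaded (3 h, 37° C) CHO-K1 cells stably expressing hKir3.1/Kir3.4 saw compound for 5 min at RT before 10-min channel opening by carbachol 10 μM/KCl 20 mM final. Released Rb was quantified by atomic absorption.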

[1] = 10-pt CR (0.003 to 67 μmol/L), mean of >4 replicates, read-out: IKACh IC50 10-pt CR, AAS
[2] = 7-pt CR (0.037 to 27 μmol/L), mean of >3 replicates, read-out: IKACh IC50 7-pt CR, AAS

In the case of CCC[C@@H](CN1CCC1)N(C)C(=O)c1ccc(Cl)cc1 [Example 1.2, (S)-N-(1-(Azetidin-1-yl)pentan-2-yl)-4-chloro-N-methylbenzamide], the IC50 [1] is reported as 3600 nM.
For CCC[C@@H](CN1CCC1)N(C)C(=O)c1ccc(F)c(C)c1 [Example 1.4, (S)-N-(1-(Azetidin-1-yl)pentan-2-yl)-4-fluoro-N,3-dimethyl-benzamide], the IC50 [1] was 3700 nM.
For CC(C)[C@@H](CN1CCCC1)N(C)C(=O)c1ccc(F)cc1Cl [Example 1.17, (S)-2-Chloro-4-fluoro-N-methyl-N-(3-methyl-1-(pyrrolidin-1-yl)butan-2-yl)benzamide], the IC50 [2] was 2800 nM and the IC50 [1] was 4200 nM.
Work on Cc1cc(C(=O)N(C)[C@H](CN2CCC2)C2CC2)ccc1F [Example 4.1, (S)—N-(2-(Azetidin-1-yl)-1-cyclopropylethyl)-4-fluoro-N,3-dimethylbenzamide] yielded an IC50 [1] of 5900 nM.
With CN(C(=O)c1ccc(Br)cc1)[C@H](CN1CC(O)C1)C1CC1 [Example 4.4, (S)-4-Bromo-N-(1-cyclopropyl-2-(3-hydroxyazetidin-1-yl)ethyl)-N-methylbenzamide] the IC50 [1] was 590 nM.
With CC(C)[C@@H](CN1CCC1)N(C)C(=O)c1ccc(Cl)cc1 [Example 5.1, (S)-N-(1-(Azetidin-1-yl)-3-methylbutan-2-yl)-4-chloro-N-methylbenzamide] the IC50 [1] was 6000 nM.
Work on CC(C)[C@@H](CN1CCC1)N(C)C(=O)c1ccc(Br)cc1.O=C(O)CCC(=O)O [Example 5.2] yielded an IC50 [1] of 1800 nM.
Cc1cc(C(=O)N(C)[C@H](CN2CC(O)C2)C(C)C)ccc1F [Example 6.1, (S)-4-Fluoro-N-(1-(3-hydroxyazetidin-1-yl)-3-methylbutan-2-yl)-N,3-dimethylbenzamide] was tested, and the IC50 [1] was 1500 nM.
In the case of CC(C)[C@@H](CN1CC(O)C1)N(C)C(=O)c1ccc(Cl)cc1 [Example 6.2, (S)-4-Chloro-N-(1-(3-hydroxyazetidin-1-yl)-3-methylbutan-2-yl)-N-methylbenzamide], the IC50 [1] is reported as 2600 nM.
In the case of Cc1cc(C(=O)N(C)[C@H](CN2CC(O)C2)C2CC2)ccc1F [Example 7.1, (S)—N-(1-Cyclopropyl-2-(3-hydroxyazetidin-1-yl)ethyl)-4-fluoro-N,3-dimethylbenzamide], the IC50 [1] is reported as 1300 nM.
With CN(C(=O)c1ccc(Cl)cc1)[C@H](CN1CC(O)C1)C1CC1 [Example 7.2, (S)-4-Chloro-N-(1-cyclopropyl-2-(3-hydroxyazetidin-1-yl)ethyl)-N-methylbenzamide] the IC50 [1] was 1800 nM.
With CN(C(=O)c1ccc(F)c(Cl)c1)[C@H](CN1CC(O)C1)C1CC1 [Example 7.3, (S)-3-Chloro-N-(1-cyclopropyl-2-(3-hydroxyazetidin-1-yl)ethyl)-4-fluoro-N-methylbenzamide] the IC50 [1] was 1900 nM.
CCC[C@@H](CN1CC(O)C1)N(C)C(=O)c1ccc(F)c(F)c1 [Example 8.1, (S)-3,4-Difluoro-N-(1-(3-hydroxyazetidin-1-yl)pentan-2-yl)-N-methylbenzamide] was tested, and the IC50 [1] was 1700 nM.
Work on CCC[C@@H](CN1CC(O)C1)N(C)C(=O)c1ccc(Cl)cc1 [Example 8.2, (S)-4-Chloro-N-(1-(3-hydroxyazetidin-1-yl)pentan-2-yl)-N-methyl-benzamide, hydrochloride] yielded an IC50 [1] of 880 nM.
CCC[C@@H](CN1CC(O)C1)N(C)C(=O)c1ccc(F)cc1 [Example 8.6, (S)-4-Fluoro-N-(1-(3-hydroxyazetidin-1-yl)pentan-2-yl)-N-methylbenzamide] gave an IC50 [1] of 8500 nM.
For CC(C)[C@@H](CN1CC[C@H](O)C1)N(C)C(=O)c1ccc(Cl)cc1 [Example 10.2, 4-Chloro-N-((S)-1-((S)-3-hydroxypyrrolidin-1-yl)-3-methylbutan-2-yl)-N-methylbenzamide hemi tartrate], the IC50 [2] was 2000 nM and the IC50 [1] was 5100 nM.
Cc1cc(C(=O)N(C)[C@H](CN2CCCC2)C(C)C)ccc1F [Example 12.1, (S)-4-Fluoro-N,3-dimethyl-N-(3-methyl-1-(pyrrolidin-1-yl)butan-2-yl)benzamide-dihydroxysuccinate] was tested, and the IC50 [2] was 1400 nM and the IC50 [1] was 15000 nM.
Cc1cccc(C(=O)N(C)[C@H](CN2CCCC2)C(C)C)c1 [Example 12.2, (S)-1-(2-(N,3-Dimethylbenzamido)-3-methylbutyl)pyrrolidinium 2,3-dihydroxysuccinate] gave an IC50 [2] of 5800 nM and an IC50 [1] of 16000 nM.
In the case of CC(C)[C@@H](CN1CCCC1)N(C)C(=O)c1ccc(F)c(Cl)c1 [Example 16.55, (S)-3-Chloro-4-fluoro-N-methyl-N-(3-methyl-1-(pyrrolidin-1-yl)butan-2-yl)benzamide], the IC50 [2] is reported as 1400 nM and the IC50 [1] is reported as 1900 nM.
Compound CC(C)[C@@H](CN1CCCC1)N(C)C(=O)c1ccc(Cl)cc1 [Example 18, (S)-1-(2-(4-Chloro-N-methylbenzamido)-3-methylbutyl)pyrrolidinium chloride] has an IC50 [2] of 1200 nM and an IC50 [1] of 6800 nM.
For CC(C)[C@@H](CN1CCCC1)N(C)C(=O)c1ccc(Br)cc1 [Example 19, (S)-1-(2-(4-bromo-N-methylbenzamido)-3-methylbutyl)pyrrolidinium 3-carboxy-2,3-dihydroxypropanoate], the IC50 [2] was 820 nM and the IC50 [1] was 4600 nM.
Work on CC[C@H](C)[C@@H](CN1CC(O)C1)N(C)C(=O)c1ccc(C#N)cc1F [Example 29.7, 4-Cyano-2-fluoro-N-((2S,3S)-1-(3-hydroxyazetidin-1-yl)-3-methylpentan-2-yl)-N-methylbenzamide] yielded an IC50 [1] of 3500 nM.
Compound CCCC[C@@H](CN1CC(O)C1)N(C)C(=O)c1ccc(C#N)cc1 [Example 33.4, 4-Cyano-N-[(2S)-1-(3-hydroxyazetidin-1-yl)hexan-2-yl]-N-methylbenzamide] has an IC50 [1] of 1100 nM.
Compound CCCC[C@@H](CN1CC(O)C1)N(C)C(=O)c1ccc(F)cc1 [Example 33.7, 4-Fluoro-N-[(2S)-1-(3-hydroxyazetidin-1-yl)hexan-2-yl]-N-methylbenzamide] has an IC50 [1] of 550 nM.
Work on CC(C)C[C@@H](CN1CC(O)C1)N(C)C(=O)c1ccc(F)c(F)c1 [Example 38.1, 3,4-Difluoro-N-[(2S)-1-(3-hydroxyazetidin-1-yl)-4-methylpentan-2-yl]-N-methylbenzamide] yielded an IC50 [1] of 1300 nM.
Compound CC(C)C[C@@H](CN1CC(O)C1)N(C)C(=O)c1ccc(Cl)cc1 [Example 38.2, 4-Chloro-N-[(2S)-1-(3-hydroxyazetidin-1-yl)-4-methylpentan-2-yl]-N-methylbenzamide] has an IC50 [1] of 110 nM.
CC(C)C[C@@H](CN1CC(O)C1)N(C)C(=O)c1ccc(C#N)cc1F [Example 38.6, 4-Cyano-2-fluoro-N-[(2S)-1-(3-hydroxyazetidin-1-yl)-4-methylpentan-2-yl]-N-methylbenzamide] showed an IC50 [1] of 3400 nM.
With CN(C(=O)c1ccc(C#N)cc1)[C@H](CN1CC(O)C1)C1CCC1 [Example 39.2, (S)-4-Cyano-N-(1-cyclobutyl-2-(3-hydroxyazetidin-1-yl)ethyl)-N-methylbenzamide] the IC50 [1] was 490 nM.
For CC[C@@H](CN1CC(O)C1)N(C)C(=O)c1ccc(Cl)cc1 [Example 39.12, (S)-4-Chloro-N-(1-(3-hydroxyazetidin-1-yl)butan-2-yl)-N-methylbenzamide], the IC50 [1] was 3900 nM.
Work on CN(C(=O)c1ccc(Cl)cc1)[C@H](CN1CC(O)C1)C1CCC1 [Example 39.14, (S)-4-Chloro-N-(1-cyclobutyl-2-(3-hydroxyazetidin-1-yl)ethyl)-N-methylbenzamide] yielded an IC50 [1] of 72 nM.
Work on Cc1cc(C(=O)N(C)[C@H](CN2CC(O)C2)C2CCC2)ccc1F [Example 39.16, (S)—N-(1-Cyclobutyl-2-(3-hydroxyazetidin-1-yl)ethyl)-4-fluoro-N,3-dimethylbenzamide] yielded an IC50 [1] of 78 nM.
